From patent US20250205259A1, “CLASS OF 7-((FIVE-MEMBERED HETEROCYCLIC)METHYL)-8-CARBOXYLIC ACID-BENZO CYCLIC BORATE DERIVATIVES AND USES THEREOF” (priority 2022, published 2025)
Like-named read-outs stand apart in the source and are kept apart here.

Assays:
Type in all cases: biochemical
OXA-48 = OXA-48 (Klebsiella pneumoniae, UniProt Q6XEC0); test: Inhibitory activity on SBL, fluorescent substrate FC-5; conditions: for inhibitory activity on OXA-48 compared to avibactam: comparison in words; for IC50: read-out: Inhibitory activity on SBL OXA-48 (IC50 class)
Chain of OXA-48 (Q6XEC0 23-265 limits assumed): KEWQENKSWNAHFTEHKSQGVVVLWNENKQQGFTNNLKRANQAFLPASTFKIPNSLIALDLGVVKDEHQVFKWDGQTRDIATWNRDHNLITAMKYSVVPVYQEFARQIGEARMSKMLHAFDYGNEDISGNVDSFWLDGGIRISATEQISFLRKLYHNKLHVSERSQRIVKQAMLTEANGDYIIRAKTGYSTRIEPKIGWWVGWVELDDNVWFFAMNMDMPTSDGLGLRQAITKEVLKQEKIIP

KPC-2 = KPC-2 (Klebsiella pneumoniae, UniProt Q9F663); test: as above; conditions: for inhibitory activity on KPC-2 compared to avibactam: comparison in words; for IC50: read-out: Inhibitory activity on SBL KPC-2 (IC50 class)
Chain of KPC-2 (Q9F663 25-293 limits assumed): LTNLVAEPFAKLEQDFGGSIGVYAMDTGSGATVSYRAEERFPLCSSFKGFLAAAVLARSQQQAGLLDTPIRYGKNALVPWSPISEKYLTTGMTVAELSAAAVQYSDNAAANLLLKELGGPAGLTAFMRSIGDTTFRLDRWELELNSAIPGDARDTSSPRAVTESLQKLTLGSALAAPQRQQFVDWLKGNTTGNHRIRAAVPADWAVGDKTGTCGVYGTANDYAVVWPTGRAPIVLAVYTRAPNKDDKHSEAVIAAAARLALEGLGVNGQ

VIM-2 = VIM-2 (Escherichia coli, UniProt Q5U7L7); test: Inhibitory activity on MBL, fluorescent substrate FC-5; conditions: read-out: Inhibitory activity on MBL VIM-2 (IC50 class)
NDM-5 = NDM-5 (Klebsiella pneumoniae, UniProt C7C422, M154L/V88L); test: as above
Chain of NDM-5 (C7C422 29-270 V88L/M154L): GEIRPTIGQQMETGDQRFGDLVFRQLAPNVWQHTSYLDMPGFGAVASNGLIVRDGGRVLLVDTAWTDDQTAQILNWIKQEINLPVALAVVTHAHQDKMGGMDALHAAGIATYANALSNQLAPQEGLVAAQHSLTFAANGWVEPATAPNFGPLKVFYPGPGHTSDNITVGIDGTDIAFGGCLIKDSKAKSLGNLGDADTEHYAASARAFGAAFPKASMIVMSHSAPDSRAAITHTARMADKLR

NDM-1 = NDM-1 (Klebsiella pneumoniae, UniProt C7C422); test: as above
Chain of NDM-1 (C7C422 29-270 limits assumed): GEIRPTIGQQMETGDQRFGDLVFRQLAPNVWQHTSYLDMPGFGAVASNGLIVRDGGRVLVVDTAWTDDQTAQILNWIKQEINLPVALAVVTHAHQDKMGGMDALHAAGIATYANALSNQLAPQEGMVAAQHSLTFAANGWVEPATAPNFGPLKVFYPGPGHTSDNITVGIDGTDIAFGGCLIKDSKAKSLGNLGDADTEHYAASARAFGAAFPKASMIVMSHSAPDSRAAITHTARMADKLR

VIM-1 = VIM-1 (Pseudomonas aeruginosa, UniProt A0A0F7KYQ8); test: as above
CTX-M-14 = CTX-M-14 (Escherichia coli, UniProt Q9L5C7); test: Inhibitory activity on SBL, fluorescent substrate FC-5; conditions: for inhibitory activity on CTX-M-14 compared to avibactam: comparison in words; for IC50: read-out: Inhibitory activity on SBL CTX-M-14 (IC50 class)
Chain of CTX-M-14 (Q9L5C7 entry or part of it): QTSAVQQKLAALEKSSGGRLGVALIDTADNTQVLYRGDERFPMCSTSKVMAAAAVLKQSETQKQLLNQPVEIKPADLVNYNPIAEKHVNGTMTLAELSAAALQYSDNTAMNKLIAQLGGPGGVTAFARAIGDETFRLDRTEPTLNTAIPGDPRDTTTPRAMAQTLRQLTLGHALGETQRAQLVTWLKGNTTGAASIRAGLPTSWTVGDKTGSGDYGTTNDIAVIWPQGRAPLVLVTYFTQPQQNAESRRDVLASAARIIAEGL

TEM-1 = TEM-1 (Escherichia coli, UniProt P62593); test: as above; conditions: for inhibitory activity on TEM-1 compared to avibactam: comparison in words; for IC50: read-out: Inhibitory activity on SBL TEM-1 (IC50 class)
Chain of TEM-1 (P62593 24-286 limits assumed): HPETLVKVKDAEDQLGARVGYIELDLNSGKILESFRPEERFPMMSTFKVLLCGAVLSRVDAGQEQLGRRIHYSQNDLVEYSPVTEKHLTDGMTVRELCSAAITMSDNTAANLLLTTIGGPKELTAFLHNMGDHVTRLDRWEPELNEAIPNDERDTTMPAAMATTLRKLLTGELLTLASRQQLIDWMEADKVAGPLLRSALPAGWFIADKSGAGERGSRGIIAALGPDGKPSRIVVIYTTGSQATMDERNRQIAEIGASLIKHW

SHV-12 = target: T1, SHV-12 (UniProt P0AD64, L31Q/G234S/E235K, species not given); test: as above; conditions: read-out: Inhibitory activity on SBL SHV-12 (IC50 class)
T1 sequence (P0AD64 1-286 L31Q/G234S/E235K): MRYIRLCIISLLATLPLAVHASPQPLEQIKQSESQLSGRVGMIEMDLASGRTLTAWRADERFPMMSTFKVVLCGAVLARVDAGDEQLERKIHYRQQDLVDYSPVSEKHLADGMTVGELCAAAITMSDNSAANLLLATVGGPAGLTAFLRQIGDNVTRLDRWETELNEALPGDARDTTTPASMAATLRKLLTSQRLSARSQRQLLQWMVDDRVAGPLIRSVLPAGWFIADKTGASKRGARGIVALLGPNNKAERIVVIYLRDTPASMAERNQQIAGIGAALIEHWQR

IMP-1 = IMP-1 (Serratia marcescens, UniProt P52699); test: Inhibitory activity on MBL, fluorescent substrate FC-5; conditions: read-out: Inhibitory activity on MBL IMP-1 (IC50 class)
Chain of IMP-1 (P52699 19-246 limits assumed): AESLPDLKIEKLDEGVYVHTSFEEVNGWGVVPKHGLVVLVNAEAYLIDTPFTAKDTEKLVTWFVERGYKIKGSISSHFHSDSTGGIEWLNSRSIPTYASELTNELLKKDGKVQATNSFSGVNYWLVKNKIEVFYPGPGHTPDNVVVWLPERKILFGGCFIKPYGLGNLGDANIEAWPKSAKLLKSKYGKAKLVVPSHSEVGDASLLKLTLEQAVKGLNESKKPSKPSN

[1] = read-out: Inhibitory activity on MBL NDM-5 (IC50 class)
[2] = read-out: inhibitory activity at a nanomolar-level on NDM-5
[3] = read-out: Inhibitory activity on MBL NDM-1 (IC50 class)
[4] = read-out: inhibitory activity at a nanomolar-level on NDM-1
[5] = VIM-1 and/or VIM-2, read-out: inhibitory activity at a nanomolar-level on VIM-1 and/or VIM-2
[6] = read-out: Inhibitory activity on MBL VIM-1 (IC50 class)

Row | Structure (SMILES) | inhibitory activity on OXA-48 compared to avibactam (OXA-48) | IC50 (OXA-48) | inhibitory activity on KPC-2 compared to avibactam (KPC-2) | IC50 (KPC-2) | IC50 (VIM-2) | IC50 (NDM-5; [1]) | IC50 (NDM-5; [2]) | IC50 (NDM-1; [3]) | IC50 (NDM-1; [4]) | IC50 (VIM-1; [5]) | IC50 (VIM-1; [6]) | inhibitory activity on CTX-M-14 compared to avibactam (CTX-M-14) | IC50 (CTX-M-14) | inhibitory activity on TEM-1 compared to avibactam (TEM-1) | IC50 (TEM-1) | IC50 (SHV-12) | IC50 (IMP-1) | IC50 (NDM-5; Inhibitory activity on MBL NDM-5 (IC50 class)) | IC50 (NDM-5; inhibitory activity at a nanomolar-level on NDM-5)
1 | N#Cc1ccn(Cc2ccc3c(c2C(=O)O)OB(O)CC3)n1 [Compound 18] | better or comparable | < 10 nM | better or comparable | < 10 nM | 10 to 1000 nM | 10 to 1000 nM | < 1000 nM | 10 to 1000 nM | < 1000 nM | < 1000 nM | 1000 to 100000 nM | better or comparable | 10 to 1000 nM | better or comparable | < 10 nM | 10 to 1000 nM | 1000 to 100000 nM |  | 
2 | NC(=O)c1cnn(Cc2ccc3c(c2C(=O)O)OB(O)CC3)c1 [Compound 19] | better or comparable | < 10 nM | better or comparable | < 10 nM | 10 to 1000 nM | 10 to 1000 nM | < 1000 nM | 10 to 1000 nM | < 1000 nM | < 1000 nM | 10 to 1000 nM | better or comparable | 10 to 1000 nM | better or comparable | < 10 nM | 10 to 1000 nM | 1000 to 100000 nM |  | 
3 | NC(=O)c1ccn(Cc2ccc3c(c2C(=O)O)OB(O)CC3)n1 [Compound 20] |  | < 10 nM |  | < 10 nM | 10 to 1000 nM | 10 to 1000 nM | < 1000 nM | 10 to 1000 nM | < 1000 nM | < 1000 nM | 10 to 1000 nM |  | 10 to 1000 nM |  | < 10 nM | 10 to 1000 nM | 1000 to 100000 nM |  | 
4 | O=C(O)c1c(Cn2ccnc2)ccc2c1OB(O)CC2 [Compound 23] |  | < 10 nM |  | < 10 nM | 10 to 1000 nM | 10 to 1000 nM | < 1000 nM | 10 to 1000 nM | < 1000 nM | < 1000 nM | 1000 to 100000 nM |  | 10 to 1000 nM |  | 10 to 1000 nM | 10 to 1000 nM | 1000 to 100000 nM |  | 
5 | Cc1nccn1Cc1ccc2c(c1C(=O)O)OB(O)CC2 [Compound 24] |  | < 10 nM |  | < 10 nM | 10 to 1000 nM | 1000 to 100000 nM |  | 1000 to 100000 nM |  | < 1000 nM | 1000 to 100000 nM |  | 10 to 1000 nM |  | 10 to 1000 nM | 10 to 1000 nM | 1000 to 100000 nM |  | 
6 | N#Cc1cccn1Cc1ccc2c(c1C(=O)O)OB(O)CC2 [Compound 25] |  | 10 to 1000 nM |  | < 10 nM | 1000 to 100000 nM | 1000 to 100000 nM |  | 1000 to 100000 nM |  |  | 1000 to 100000 nM |  | 10 to 1000 nM |  | 10 to 1000 nM | 10 to 1000 nM | 1000 to 100000 nM |  | 
7 | O=C(O)c1c(CN2CC=CC2)ccc2c1OB(O)CC2 [Compound 26] |  | 10 to 1000 nM |  | < 10 nM | 1000 to 100000 nM | 1000 to 100000 nM |  | 1000 to 100000 nM |  |  | 1000 to 100000 nM |  | 10 to 1000 nM |  | 10 to 1000 nM | 10 to 1000 nM | 1000 to 100000 nM |  | 
8 | O=C(O)c1c(Cn2cc([N+](=O)[O-])cn2)ccc2c1OB(O)CC2 [Compound 31] |  | < 10 nM |  | < 10 nM | 10 to 1000 nM | 10 to 1000 nM | < 1000 nM | 10 to 1000 nM | < 1000 nM |  | 1000 to 100000 nM |  | 10 to 1000 nM |  | 10 to 1000 nM | 10 to 1000 nM | 1000 to 100000 nM |  | 
9 | Nc1cnn(Cc2ccc3c(c2C(=O)O)OB(O)CC3)c1 [Compound 32] |  | < 10 nM |  | < 10 nM | 10 to 1000 nM | 10 to 1000 nM | < 1000 nM | 10 to 1000 nM | < 1000 nM |  | 1000 to 100000 nM |  | < 10 nM |  | 10 to 1000 nM | 10 to 1000 nM | 1000 to 100000 nM |  | 
10 | NS(=O)(=O)Nc1cnn(Cc2ccc3c(c2C(=O)O)OB(O)CC3)c1 [Compound 34] |  | < 10 nM |  | < 10 nM | 10 to 1000 nM |  |  | 10 to 1000 nM | < 1000 nM |  | 1000 to 100000 nM |  | < 10 nM |  | < 10 nM | 10 to 1000 nM | 1000 to 100000 nM | 10 to 1000 nM | < 1000 nM
11 | NCCNCc1cnn(Cc2ccc3c(c2C(=O)O)OB(O)CC3)c1 [Compound 35] |  | < 10 nM |  | 10 to 1000 nM | 10 to 1000 nM | 10 to 1000 nM |  | 1000 to 100000 nM |  |  | 1000 to 100000 nM |  | 10 to 1000 nM |  | < 10 nM | 10 to 1000 nM | 1000 to 100000 nM |  | 
12 | NS(=O)(=O)NCc1cnn(Cc2ccc3c(c2C(=O)O)OB(O)CC3)c1 [Compound 36] |  | < 10 nM |  | < 10 nM | 10 to 1000 nM | 10 to 1000 nM | < 1000 nM | 10 to 1000 nM | < 1000 nM |  | 1000 to 100000 nM |  | 10 to 1000 nM |  | < 10 nM | 10 to 1000 nM | 1000 to 100000 nM |  | 
13 | NC1(c2cnn(Cc3ccc4c(c3C(=O)O)OB(O)CC4)c2)CC1 [Compound 40] |  | 10 to 1000 nM |  | < 10 nM | 10 to 1000 nM | 10 to 1000 nM |  | 1000 to 100000 nM |  |  | 1000 to 100000 nM |  | 10 to 1000 nM |  | < 10 nM | 10 to 1000 nM | 1000 to 100000 nM |  | 
14 | NCc1ccn(Cc2ccc3c(c2C(=O)O)OB(O)CC3)n1 [Compound 42] |  | 10 to 1000 nM |  | < 10 nM | 10 to 1000 nM | 10 to 1000 nM | < 1000 nM | 10 to 1000 nM | < 1000 nM | < 1000 nM | 10 to 1000 nM |  | 10 to 1000 nM |  | < 10 nM | 10 to 1000 nM | 1000 to 100000 nM |  | 
